Here are results for 6 molecules from US20080213910A1, “METHOD FOR BLOCKING NON-SPECIFIC PROTEIN BINDING ON A FUNCTIONALIZED SURFACE” (priority 2006, published 2008).

Assay [1] in a line: Sugars binding to amine surfaces (PWV change). The settings on record: for PWV change after over night incubation and wash: stored overnight in water. On the procedure:
Lactose and glyceraldehyde solutions in water at 5% and 2.5% respectively were added to a BIND™ sensor plate functionalized with amine functional groups for 2 hrs. The plate was then washed thoroughly with water and stored overnight in water. The plates were then washed again with water and the binding of sugars was measured.

The target of assay [2] is T1, SA surface (Streptomyces avidinii, UniProt P22629). The assay is described as follows: Biotin binding to SA surface in FBS, with and without trehalose blocking. The settings on record: for shift from biotin binding to SA surface: SA shift 5.8 nm. The protocol:
In order to test the affect of trehalose on specific protein-protein interactions, the ability of trehalose to interfere with the ability of biotin to bind to a SA surface was measured. Biotin in either 10% or 100% FBS was allowed to react with the SA surface with the 5.8 nm PWV shift, and the resulting shift measured (see Table 8). The theoretical shift resulting from Biotin binding, shown in parenthesis, was calculated from the following formula: (Mol. Wt. of Biotin/Mol. Wt. of SA)×# of binding sites on SA for biotin×SA shift, or (244/55000)×4 (binding sites)×5.8 nm (SA shift).

The nature of assay [3]: SA binding to the aldehyde surface (PWV shift). The protocol: (§1) 40 μl of 5% Trehalose solution was added to SA immobilized wells (0.05 mg/ml SA and 0.2 mg/ml SA) and control wells (Trehalose alone) and were allowed to bind for 2 hrs. The plates were washed and the peak wavelength value (PWV) shift was measured (See Table 6 and FIG. 2). The SA shift was the PWV of SA binding to the aldehyde surface, while the blocker shift was the PWV shift obtained after the blocker was allowed to bind to the unreacted aldehyde functional groups on the SA-immobilized aldehyde surface. The unreacted aldehydes are more easily accessed by the small blocker molecule than the bigger SA molecules. The blocker shift is lower with higher SA concentration likely because there are less aldehydes available for binding the blocker in these wells.

Assay [4] is described as follows: Blocking of streptavidin (SA) surface with 5% trehalose (blocker PWV shift). Conditions: 2 hrs. Format: binding. The protocol: as §1
In assay [5] the target is T1, SA surface. The assay is described as follows: Trehalose efficacy to reduce non-specific FBS binding to the SA surface. Conditions: for FBS 10% binding to SA surface (shift normalized to trehalose shift) / FBS 100% binding to SA surface (shift normalized to trehalose shift): blocked with 5% Trehalose. The protocol:
In order to test the efficacy of trehalose to reduce non-specific binding, the ability of trehalose to reduce Fetal Bovine Serum (FBS) binding to the SA surface was measured. 10% and 100% commercially available FBS was allowed to react with either the SA surface with the 2 nm PWV shift or the 5.8 nm PWV shift, and the resulting shift measured (see Table 7 and FIG. 3). The shifts were normalized to the trehalose shift by considering the resulting signal after the surface has been blocked to be zero, or baseline. The change in binding due to the protein present in FBS is then measured and reported as non-specific binding.

For assay [6], the system named is Carbonic Anhydrase (CA). The assay is described as follows: CBS binding to carbonic anhydrase after blocking with 5% trehalose (PWV shift). The settings on record: 5% trehalose block. The protocol:
FIG. 5 represents the normalized peak wavelength value (PWV) resulting from CBS binding to carbonic anhydrase after blocking with 5% trehalose.
The CA surface was blocked with 5% trehalose. Trehalose blocking of non-specific interactions of CBS to the surface enabled detection of specific binding to CA below 1 μM.

T1 sequence (P22629 25-183): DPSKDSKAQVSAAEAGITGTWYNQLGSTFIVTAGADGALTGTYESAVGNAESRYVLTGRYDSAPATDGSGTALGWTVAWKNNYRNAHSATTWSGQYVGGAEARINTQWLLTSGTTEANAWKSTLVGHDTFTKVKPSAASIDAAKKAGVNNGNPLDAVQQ

`O=CC(O)CO` (stereo not shown) [Glyceraldehydes, glyceraldehyde]: in assay [1] (2.5% solution in water), the “PWV change after 2 hr incubation and wash” value amounted to 1.75 nm; the “PWV change after over night incubation and wash” value turned out to be 1.72 nm.

In the case of `OC[C@H]1O[C@@H](O[C@H]2[C@H](O)[C@@H](O)C(O)O[C@@H]2CO)[C@H](O)[C@@H](O)[C@H]1O` (stereo partly shown) [Lactose], in assay [1] (5% solution in water), the “PWV change after 2 hr incubation and wash” value is 4.86 nm; the “PWV change after over night incubation and wash” value was found to be 4.82 nm.

For the molecule `O=C(O)CCCC[C@@H]1SC[C@@H]2NC(=O)N[C@@H]21` [Biotin], the “theoretical shift resulting from Biotin binding (in parenthesis)” value in assay [2] ((244/55000) x 4 binding sites x 5.8 nm SA shift) was determined as 0.104 nm. For the same molecule, the “shift from biotin binding to SA surface” value in assay [2] (biotin in FBS 10%, 5% Trehalose) worked out at 0.09 nm; in assay [2] (biotin in FBS 10%, No Trehalose), 0.08 nm; in assay [2] (biotin in FBS 100%, 5% Trehalose) it was 0.1 nm; in assay [2] (biotin in FBS 100%, No Trehalose), 0.12 nm.

Take streptavidin [SA]: the SA shift in assay [3] (0.05 mg/mL SA during immobilization) turned out to be 2.00 Nm; in assay [3] (0.2 mg/mL SA during immobilization), 5.81 Nm.

Turning to `OC[C@H]1O[C@H](O[C@H]2O[C@H](CO)[C@@H](O)[C@H](O)[C@H]2O)[C@H](O)[C@@H](O)[C@@H]1O` [Trehalose], the results for the “Blocker shift 5% Trehalose” value in assay [4] (aldehyde surface (no streptavidin)), in assay [4] (wells immobilized with 0.05 mg/mL SA) and in assay [4] (wells immobilized with 0.2 mg/mL SA) were 2.91 nm, 2.96 nm and 2.19 nm, respectively. In addition, in assay [2], the “interference with biotin binding to SA” value was “does not seem to interfere with biotin binding”. For the same molecule, the “effect on non-specific binding of proteins from FBS to the SA surface” value in assay [5] is given as “reduced the non-specific binding of proteins from FBS to the SA surface”. Moreover, the “FBS 10% binding to SA surface (shift normalized to trehalose shift)” value in assay [5] (SA shift 2 nm surface) is on record as 2.41 nm; in assay [5] (SA shift 5.8 nm surface), 0.62 nm. For the same molecule, the “FBS 100% binding to SA surface (shift normalized to trehalose shift)” value came to 1.27 nm in assay [5] (SA shift 2 nm surface) and 0.07 nm in assay [5] (SA shift 5.8 nm surface).

For the molecule `NS(=O)(=O)C(=O)O` [CBS, Carboxysulfonamide], the “PWV shift of CBS binding to CA” value in assay [6] (CBS 0.05 μM) is reported as 0.000 nm; in assay [6] (CBS 0.10 μM) it was 0.001 nm; in assay [6] (CBS 0.20 μM), 0.003 nm; in assay [6] (CBS 0.39 μM), 0.005 nm; in assay [6] (CBS 0.78 μM), 0.010 nm; in assay [6] (CBS 1.56 μM), 0.020 nm. Further, the “PWV shift of CBS binding to CA” value in assay [6] (CBS 3.13 μM) is reported as 0.037 nm; in assay [6] (CBS 6.25 μM), 0.045 nm; in assay [6] (CBS 12.50 μM), 0.054 nm; in assay [6] (CBS 25.00 μM), 0.054 nm; in assay [6] (CBS 50.00 μM), 0.062 nm.
